“Also recorded” adds a separate entry of the source.
Assays:
[1] = test system: Parkinson's disease symptoms; assay: Example 2: Parkinson's disease subject, topical progesterone and testosterone; assay type: in vivo, human
Description: A person was diagnosed with Parkinson's disease in August of 2015. Notable symptoms include both resting and action tremor of the left hand and fingers, forearm, and, to a lesser extent, the right hand and the left leg. Handwriting and computer keyboard work were difficult. They had ocular symptoms associated with the disease, including dry eye disease with moderate to severe burning and grittiness, rapid blink rate, and partial blinking. They used artificial tears constantly in an attempt to alleviate the ocular symptoms. They had not been on any Parkinson's medications. Their Parkinson's tremor followed an “on-off” cycle that correlated with their stress levels, the “on” cycle being times with low stress and few symptoms, and the “off” cycle induced by stress showing an increase in symptoms.
In late February 2017, the subject started applying single daily doses of 0.125% testosterone to the forehead and ear conchae. By the third day of treatment, the subject was tremor-free for periods of 4-6 hours, and the “on” part of the cycle was more frequent. […] The dose of testosterone was increased to 0.2% once daily in early April.
In July 2017, testosterone application was stopped after a taper to evaluate its effects. […] On Aug. 17, 2017, they reported extreme anxiety.
That same afternoon, the subject applied 0.2% testosterone to their forehead and ear conchae, and the next day reported less anxiety and more “on” cycles. By Aug. 20, 2017, they reported having stabilized on the once daily applications with a 60% or greater increase in “on” periods. On August 28, they reported going 9 hours without tremors and leg spasms. On Aug. 30, 2017, the subject was able to walk 8 miles and exercised in between. They described themself as feeling 100%.

[2] = test system: Parkinson's tremor and ocular graft-versus-host disease; assay: Example 3: Parkinson's tremor and co-morbid ocular graft-versus-host disease, topical progesterone; assay type: in vivo, human
Description: A person was diagnosed with Parkinson's disease over 3 years ago, leukemia about 2 years ago, and ocular graft versus host disease resulting from allogeneic stem cell treatment for the leukemia. The patient has been on oral carbidopa-levodopa for at least 2 years.
The patient started treatment with twice daily progesterone 1% gel applied to the forehead to promote ocular secretion of tear film, and to resolve other symptoms and signs of surface eye disease. […] On a follow up visit 5 weeks later, they reported continued relief from burning and photophobia.
When the patient was first seen in June 2016, they had noticeable significant tremors in both hands and multiple fingers. These were related to their Parkinson's disease as diagnosed and included muscle contractions, i.e., dyskinesia, related to their carbidopa-levodopa oral treatment.
During the 5-week ophthalmologist follow-up visit, the progesterone treatment regimen was performed in the office in modified form. More specifically, the daily dose of progesterone was divided, with 1 mg applied to the concha of each ear, excluding the forehead, to which progesterone had been applied 6 hours earlier. The patient reported improved moisture and comfort in both eyes approximately 2 minutes post application.
The patient had taken carbidopa-levodopa extended release medication at 6 am that morning, with an added immediate release dose at 8 am. The visit to the ophthalmologist was at 2 pm. At that point there was uncontrolled movement of the hands (dyskinesia) along with finger vibrations. The patient reported that the usual duration of efficacy of their carbidopa-levodopa regimen was 4 hours. Normally they would have taken another carbidopa-levodopa dose at 2 pm. Instead, progesterone was applied to the concha of both ears as described, supra.

[3] = test system: c-Fos-positive neurons of the spinal trigeminal nucleus; assay: Example 10: effect of topical progesterone on neural c-Fos expression in rat brainstem; assay type: in vivo; conditions: progesterone 1% on the forehead, less than 0.2 mg per dose, two hours later
Method: A study was conducted in a rat model using the same formulation of progesterone and the same route of administration as had been used by the individuals in the preceding examples. In the study, 7 rats were treated with progesterone 1% on the forehead, estimated to be less than 0.2 mg per dose, and 6 rats received placebo. Two hours later the animals were perfused and brainstems removed. Brainstem tissues were processed for immunohistochemistry using an anti-c-Fos antibody to identify c-Fos protein in cell nuclei that can be counted to assess the activity of c-Fos-positive neurons. Two regions of the spinal trigeminal nucleus were examined: (i) rostral spinal trigeminal nucleus (Vsp) subnucleus interpolaris/subnucleus caudalis (Vi/Vc) region and (ii) caudal Vsp subnucleus caudalis/cervical 1 (Vc/C1) region. […] The rat model confirmed forehead application of progesterone signaled the neurons responsible for activation of tear film production. Various authors and experiments had confirmed the role of neurons in the rostral subnucleus interpolaris (Vi/Vc) and caudalis (Vc/C1) region of brain stem within the spinal trigeminal nucleus (Vsp), a major termination zone for trigeminal sensory fibers, to innervate the eye. When cFos genes in these neurons are activated, cFos proteins are produced that can be stained to count the number of activated neurons. (Meng et al., 1996; Meng et al., 2013).

[4] = test system: ocular discomfort, tear film production, tremor; assay: Summary of human examples: onset, duration of efficacy and tolerance; assay type: in vivo; conditions: progesterone USP 0.5 to 1 mg per dose, aqueous formulation, to the forehead; all human examples
Description: Additional findings are that very small doses in contrast to what is required in systemic delivery are required once or twice daily, but the pharmacological agents must be applied in such a manner, and from specified formulations, so that they penetrate to the epidermis. It is unnecessary to go deeper than the epidermis, or to be absorbed into the blood circulation. Thus there are no blood brain barrier issues. […] The activation appears to be remote and not proximate innervation by the agents themselves. A further finding is that there has been no buildup of tolerance after months and years of use.
All human examples of neurodegenerative disorder, Parkinson's, essential tremor, herpes ophthalmicus and chronic ocular graft-versus-host disease, had ocular discomfort and signs and symptoms that were treated by low dose progesterone USP, 0.5 to 1 mg per dose, applied in an aqueous formulation to the forehead. […] The afferent nerve accessed is CN V trigeminal nerve but the efferent parasympathetic signaling was via CN VII facial nerve and a branch the greater petrosal nerve that synapses in the pterygopalatine ganglion to innervate tear film secretion. […]
Another surprising observation is that the duration of efficacy is at least 12 hours with the easily monitored parameters such as ocular comfort, tear film production, or tremor reduction.

Q: Which results are given for CC(=O)[C@H]1CC[C@H]2[C@@H]3CCC4=CC(=O)CC[C@]4(C)[C@H]3CC[C@]12C [progesterone]?
A: tremors ([1]; progesterone 1% to forehead): no impact on the tremors; dry eye disease ([1]; progesterone 1% to forehead, within the first week): dry eye disease resolved; tremor symptoms ([1]; topical progesterone additionally applied to the ear conchae): minimal impact on tremor symptoms; dry eye disease ([1]; topical progesterone continued during testosterone abstinence): continued to be well managed; onset of tremor cessation ([2]; low dose progesterone USP added to conchae of outer ears): rapid cessation of tremor within minutes; time to improved moisture and comfort in both eyes ([2]; progesterone 1 mg to the concha of each ear): approximately 2 minutes; reduction of tremors in hands and fingers in frequency and amplitude ([2]; progesterone 1 mg to the concha of each ear, 2 minutes post application): about 90%; tear film secretion ([2]; progesterone 1% gel twice daily to forehead, after initial treatment): tear film secretion was improved; photophobia and burning ([2]; progesterone 1% gel twice daily to forehead, after initial treatment, on oral carbidopa-levodopa): immediate relief of photophobia and burning; facial masking and facial expression ([2]; progesterone applied to ear conchae regions): decreased facial masking and more voluntary facial expressions; hand and finger tremors ([2]; progesterone applied to the forehead only, 5 weeks): no change seen in the hand and finger tremors; tremor ([2]; topical progesterone to both conchae and forehead, carbidopa-levodopa at lower dosing frequency, 5 days): remained tremor-free until the subsequent visit 5 days later; number of activated (c-Fos-positive) neurons in the Vc/C1 region, compared to placebo [3]: but not the Vc/C1 region; number of activated (c-Fos-positive) neurons in the Vi/Vc region, compared to placebo ([3]; 7 rats vs 6 placebo): significantly greater number of activated neurons; also recorded: significant increase in activated neurons; duration of ocular comfort per dose [4]: at least 12 hours; time to ocular comfort and tear film secretion [4]: within a few minutes

Source: US10098895B2, “Treatment of symptoms related to neurodegenerative disorders through pharmacological dermal activation of cranial nerves” (GLIA, LLC, priority 2016, dated 2018)
